Laboratory results reported in patent US9549911B2, “Ginger metabolites and uses thereof” (North Carolina A&T State University, priority 2012, dated 2017).
pIC50: −log10 of the molar value. Where two headings read alike, the source gives them in different places.

Key:
H-1299 cells [1] = assay: TUNEL apoptosis assay (Part 2); assay type: cell-based, human; conditions: H-1299, 20 or 40 μM, 24 hours
HCT-116 cells [2] = assay: Measurement of reactive oxygen species (DCFH-DA); assay type: cell-based, human; conditions: HCT-116, 40 μM, after two hours
Excerpt: The assay employed the cell-permeable fluorogenic probe 2′,7′-dichlorodihydrofluorescin diacetate [DCFH-DA] (Sigma Aldrich, St. […] In brief, DCFH-DA is diffused into cells and is deacetylated by cellular esterases to non-fluorescent 2′,7′-dichlorodihydrofluorescin (DCFH), which is rapidly oxidized to highly fluorescent 2′,7′-dichlorodihydrofluorescein (DCF) by intracellular hydrogen peroxide, or other low molecular weight peroxides. Measured fluorescence intensity is thus proportional to the amount of such peroxides in the cell at a given time. Human colon cancer cells HCT-116 or HT-29 were seeded in 96-well black-sided, clear-bottomed culture plates, with 5000 cells/well and were allowed to adhere for 24 hours in a 37° C. incubator with 5% CO2. […] After desired incubation times of 0, 2, 4, 8, or 24 hours, media and test compounds were aspirated. Cells were washed three times with 200 μL PBS before addition of 100 μL 1 mM DCF-DA. The fluorogenic probe permeated cell membranes and was processed to DCF for one hour at 37° C. After incubation, plates were immediately placed in a Biotek microplate reader to measure fluorescence at wavelengths of 485 (excitation) and 528 (emission). Raw values were normalized to DMSO control for each time point and are presented as fold induction versus 0 hour time point (n=3).

[3] = system: H-1299 human lung cancer cells; assay: MTT growth inhibition of human cancer cells, 24 h (Part 1); assay type: cell-based; conditions: H-1299, 24 h, 0 to 80 μM
Experimental: (§1) The reading reflected the number of viable cells and was expressed as a percentage of viable cells in the control. Both HCT-116 and H-1299 cells were cultured in McCoy's 5A medium. All of the above media were supplemented with 10% fetal bovine serum, 1% penicillin/streptomycin, and 1% glutamine, and the cells were kept in a 37° C. incubator with 95% humidity and 5% CO2.

[4] = system: HCT-116 human colon cancer cells; assay: as above; assay type: cell-based; conditions: HCT-116, 24 h, 0 to 80 μM
Experimental: as §1

H-1299 cells [5] = assay: TUNEL apoptosis assay (Part 1); assay type: cell-based, human; conditions: 24 h
Experimental: (§2) HCT-116 and H-1299 cells were seeded in six-well plates at 1.0×10^5 cells/well and were incubated at 37° C. in a 5% CO2 incubator. After 24 h, fresh media supplemented with DMSO (control), [6]-shogaol (10 or 20 μM), M9 (40 or 80 μM), or M11 (40 or 80 μM) were added to the wells. After 24-h incubation, cells were washed and pretreated for 15 min at room temperature with a solution of 20 μg/ml proteinase K. Cells were then washed twice with PBS pH 7.4 and were fixed for 10 min at room temperature using 10% neutral formaldehyde solution. After two washes in distilled H2O, cells were resuspended in 100 μl of distilled H2O and were applied on silanized microscope slides. Slides were incubated overnight at 37° C. and were washed twice with PBS. Terminal deoxynucleotidyl transferase deoxyuridine triphosphate nick-end labeling (TUNEL) assay was then performed according to the manufacturer's protocol. Cells were observed under 400× power using a Zeiss A1 microscope (Carl Zeiss, Inc., Thornwood, N.Y.).
(§3) Ten fields per slide were evaluated, and TUNEL-positive cells (with brown coloration in the nucleus) were expressed as a percentage of the total number of cells contained in a field. Statistical Analysis. For simple comparisons between two groups, twotailed Student's t test was used. A p value of less than 0.05 was considered statistically significant in all the tests.

HCT-116 cells [6] = assay: TUNEL apoptosis assay (Part 1); assay type: cell-based, human; conditions: 24 h
Experimental: as §2, §3

[7] = Kinetic study of [6]-shogaol metabolism to M6 in liver microsomes; conditions: human liver microsomes 0.1 mg/mL, 30 min, [6]-shogaol 7.8 to 2000 μM
Experimental: To estimate kinetic parameters of metabolism of [6]-shogoal to major product M6 in liver microsomes from human and other species, the incubation conditions were optimized to ensure that formation rate of M6 was in the linear range in relation to incubation time and protein concentration. [6]-Shogaol (7.81, 15.63, 31.25, 62.5, 125, 250, 500, 1000, and 2000 μM) was incubated with liver microsomes from mouse (MLM), rat (RLM), dog (DLM), monkey (CyLM), and human (HLM) (0.1 mg/mL each, respectively) for 30 minutes. All incubations were performed in triplicate. The apparent Km and Vmax values were calculated from analysis of experimental data according to the Michaelis-Menten equation, and the results were graphically represented (for HLM) by an Eadie-Hofstee plot. Kinetic constants were reported as the value+/−S.E. of the parameter estimate.

[8] = as above; assay type: in vitro ADME, mouse; conditions: mouse liver microsomes 0.1 mg/mL, 30 min; read-out: Km of M6 formation
Experimental: All incubations were performed in triplicate.

Row | pIC50 [3] | pIC50 [4] | Km ([7]; read-out: Km of M6 formation) | Km [8] | SMILES | induction of apoptosis (TUNEL) versus DMSO (H-1299 cells [1]) | ROS induction (HCT-116 cells [2]) | apoptotic cells (TUNEL) (H-1299 cells [5]; H-1299, 10 μM) | apoptotic cells (TUNEL) (H-1299 cells [5]; H-1299, 20 μM) | apoptotic cells (TUNEL) (HCT-116 cells [6]; HCT-116, 10 μM) | apoptotic cells (TUNEL) (HCT-116 cells [6]; HCT-116, 20 μM) | Vmax of M6 formation [7]
1 | – | – | – | – | CCCCCC(CC(=O)CCc1ccc(O)c(OC)c1)SC[C@H](N)C(=O)O (some centres unmarked) [M2, 5-cysteinyl-[6]-shogaol] | Apoptosis was observed | greater than 2 fold | – | – | – | – | –
2 | 4.77 | 4.73 | 45.6 µM | 75.7 µM | CCCCC/C=C/C(=O)CCc1ccc(O)c(OC)c1 [[6]-shogaol, reference compound] | – | – | 5.2% | 31.6% | 10.3% | 31.2% | 10.82+/−0.47 nanomoles per minute per milli
